How the values were obtained:
[1] = Solid-state compatibility of sofosbuvir/velpatasvir SSD/voxilaprevir SSD granules (Table 7); format: physicochemical; settings: for LS / Total Imp./Deg. Products: granules Lot F
Protocol: Sofosbuvir, velpatasvir SSD, and voxilaprevir SSD are chemically and physically compatible in the solid-state. The solid-state compatibility of sofosbuvir, velpatasvir SSD, and voxilaprevir SSD was evaluated by preparing a powder blend composed of 49.75% w/w sofosbuvir, 24.88% w/w of velpatasvir SSD, and 24.88% w/w of voxilaprevir SSD, and 0.25% w/w magnesium stearate (added as a lubricant). The powder blend was dry granulated using a roller compactor and then milled. The resulting granules (Lot F) contained 400 mg of sofosbuvir, 100 mg velpatasvir (as 200 mg velpatasvir SSD), and 100 mg voxilaprevir (as 200 mg voxilaprevir SSD) equivalent to the relative compositions in the sofosbuvir/velpatasvir/voxilaprevir tablet: 400/100/100 mg.
The chemical and physical stability of sofosbuvir/velpatasvir SSD/voxilaprevir SSD granules, packaged in glass vials (protected from light), was evaluated for 6 months at 25° C./60% RH and 40° C./75% RH under open and closed conditions. As summarized in Table 7, sofosbuvir, velpatasvir, and voxilaprevir were chemically stable with no increase in total impurities/degradation products of sofosbuvir (remaining at 0.0%), velpatasvir (remaining between 0.4 and 0.5%), and voxilaprevir (remaining between 1.1 and 1.4%) after a 6 month storage period. No upward trend in the content of degradation products was observed over the time period studied.

[2] = Chemical and physical stability of Formulation G film-coated tablets Lots A and B (Tables 11A, 11B); format: physicochemical
Protocol: In some embodiments, the film-coated tablets were packaged in 75 and 100 mL white HDPE bottles (Lots A and B, respectively, as described in Tables 11A, 11B) with 1 g silica gel desiccant canisters and a polyester fiber coil. The 75 and 100 mL HDPE bottles contained fourteen and twenty eight tablets, respectively. Each HDPE bottle was capped using a continuous thread, child-resistant polypropylene screw cap with an […], aluminum-faced line. The packaged tablets (14 and 28 counts) were evaluated for stability at 40° C./75% RH and 25° C./60% RH. Additionally, the 14-count bottles (without cap) were evaluated for stability under open conditions at 40° C./75% RH.

[3] = 25° C./60% RH (Closed), 3 months
[4] = 25° C./60% RH (Closed), 6 months
[5] = 40° C./75% RH (Closed), 1 month
[6] = 40° C./75% RH (Closed), 3 months
[7] = 40° C./75% RH (Closed), 6 months

Compound: CC(C)OC(=O)C(C)N[P@](=O)(OC[C@H]1O[C@@H](n2ccc(=O)[nH]c2=O)[C@](C)(F)[C@@H]1O)Oc1ccccc1 (stereo in doubt) [sofosbuvir, (S)-isopropyl 2-(((S)-(((2R,3R,4R,5R)-5-(2,4-dioxo-3,4-dihydropyrimidin-1(2H)-yl)-4-fluoro-3-hydroxy-4-methyltetrahydrofuran-2-yl)methoxy)(phenoxy)phosphoryl)amino)propanoate]
- LS [1, 3]: 101.1%
- Total Imp./Deg. Products [1, 3]: 0.0%
- LS [1, 4]: 99.1%
- Total Imp./Deg. Products [1, 4]: 0.0%
- LS [1, 5]: 99.5%
- Total Imp./Deg. Products [1, 5]: 0.0%
- LS [1, 6]: 99.4%
- Total Imp./Deg. Products [1, 6]: 0.0%
- LS [1, 7]: 97.2%
- Total Imp./Deg. Products [1, 7]: 0.0%
- LS ([1]; 40° C./75% RH (Open), 1 month): 101.3%
- Total Imp./Deg. Products ([1]; 40° C./75% RH (Open), 1 month): 0.0%
- LS ([1]; 40° C./75% RH (Open), 3 months): 98.5%
- Total Imp./Deg. Products ([1]; 40° C./75% RH (Open), 3 months): 0.0%
- LS ([1]; 40° C./75% RH (Open), 6 months): 95.6%
- Total Imp./Deg. Products ([1]; 40° C./75% RH (Open), 6 months): 0.0%
- LS ([1]; Initial, 0 months): 103.5%
- Total Imp./Deg. Products ([1]; Initial, 0 months): 0.0%
- total impurities/degradation products ([1]; granules, over 6 month storage at 25° C./60% RH and 40° C./75% RH, open and closed): 0.0%
- total impurities/degradation products ([2]; Formulation G tablets, open conditions at 40° C./75% RH for 6 months): 0.0%
- Total Imp./Deg. ([2]; Lot A (14 ct), 25° C./60% RH Closed, 1 month): 0.0%
- Total Imp./Deg. ([2]; Lot A (14 ct), 25° C./60% RH Closed, 3 months): 0.0%
- Total Imp./Deg. ([2]; Lot A (14 ct), 25° C./60% RH Closed, 6 months): 0.0%
- Total Imp./Deg. ([2]; Lot A (14 ct), 40° C./75% RH Closed, 1 month): 0.0%
- Total Imp./Deg. ([2]; Lot A (14 ct), 40° C./75% RH Closed, 3 months): 0.0%
- Total Imp./Deg. ([2]; Lot A (14 ct), 40° C./75% RH Closed, 6 months): 0.0%
- Total Imp./Deg. ([2]; Lot A (14 ct), 40° C./75% RH Open, 1 month): 0.0%
- Total Imp./Deg. ([2]; Lot A (14 ct), 40° C./75% RH Open, 3 months): 0.0%
- Total Imp./Deg. ([2]; Lot A (14 ct), 40° C./75% RH Open, 6 months): 0.0%
- Total Imp./Deg. ([2]; Lot A (14 ct), Initial): 0.0%
- Total Imp./Deg. ([2]; Lot B (28 ct), 25° C./60% RH Closed, 1 month): 0.0%
- Total Imp./Deg. ([2]; Lot B (28 ct), 25° C./60% RH Closed, 3 months): 0.0%
- Total Imp./Deg. ([2]; Lot B (28 ct), 25° C./60% RH Closed, 6 months): 0.0%
- Total Imp./Deg. ([2]; Lot B (28 ct), 40° C./75% RH Closed, 1 month): 0.0%
- Total Imp./Deg. ([2]; Lot B (28 ct), 40° C./75% RH Closed, 3 months): 0.0%
- Total Imp./Deg. ([2]; Lot B (28 ct), 40° C./75% RH Closed, 6 months): 0.0%
- Total Imp./Deg. ([2]; Lot B (28 ct), Initial): 0.0%
- total impurities/degradation products ([2]; packaged Formulation G tablets, 40° C./75% RH and 25° C./60% RH for 6 months): 0.0%

From patent US11338007B2, “Combination formulation of three antiviral compounds” (priority 2016, dated 2022)
